Measurements taken from patent US20210346500A1, “PHOTOOXIDATIVE INACTIVATION OF PATHOGENS INCLUDING SARS-CoV-2” (laneg GmbH, priority 2020, published 2021).
Entries after “also recorded” stand apart in the source; their conditions may differ.

How the values were obtained:
Assay type in all cases: in vivo, human
SARS-CoV-2 (COVID-19) = assay: Placebo-controlled clinical study of photodynamic treatment: course of disease and mortality in COVID-19 patients
Description: The photosensitizer used was methylene blue as a 1% solution of methylthioninium-chloride dissolved in a 5% glucose solution. (Heltschl GmbH, Germany). The methylene blue solution was applied by flushing and gargling in the oral cavity and throat, and by spraying in the nasal cavity.
(§1) The photodynamic excitation was performed using the Medlouxx PDT device, produced by laneg GmbH, Germany (www.medlouxx.com). The device applicator emits 660nm laser radiation with 240 mW power. The infected areas were irradiated for 5 minutes resulting in a dosage of about 72 J/cm2. This procedure: 1 min flushing followed by 5 minutes irradiation, was repeated 5 times, resulting in a total dosage of about 360 J/cm2. Before and immediately after the photodynamic treatments, the viral concentration was determined by PCR tests using the PCR real time testing facility ThermoFisher, QuantStudio 3.
The placebo patients received exactly same treatment procedure except that all placebo patients were treated with covered radiation heads. The patients were not able to distinguish an active versus a placebo treatment due to the filter function of the laser safety goggles.
(§2) We have treated 300 patients with the active treatment protocol and 300 patients with the placebo protocol described above. The active treatment group consisted of 164 men and 136 women, with an age range of 35-83 years. All patients signed informed consent prior to the start of the treatment protocol. The main inclusion citeria were fever, typical symptoms and a positive PCR test. The main exclusion criterium was a negative PCR test. Besides fever, we have found a significant variability in the initial presenting symptoms, like cough, loss of smell, loss of taste, headaches, fatigue and others.
We have characterized the course of the disease by the degree and duration of fever which was the most prominent symptom (see Table 1): […]

SARS CoV-2 = conditions: active treatment group, 4 weeks after photodynamic treatments; ELISA not specific for SARS CoV vs SARS CoV-2
[1] = Treatment related adverse events in the clinical study; conditions: methylene blue + 660 nm irradiation, 300 patients
Description: as §1, §2

[2] = max fever 39.2° C., 3 weeks, methylene blue + 660 nm irradiation, 300 patients
[3] = max fever 39.5° C., 4-6 weeks, methylene blue + 660 nm irradiation, 300 patients
[4] = moderate = max fever 38.7° C., 2 weeks, methylene blue + 660 nm irradiation, 300 patients

SMILES: CN(C)c1ccc2nc3ccc(=[N+](C)C)cc-3sc2c1 [methylene blue, methylthioninium-chloride]
- Mortality Rate - Active Treatment Group (SARS-CoV-2 (COVID-19); 300 patients, methylene blue + 660 nm irradiation): 0.7%
- Disease course Severe (Hospital Admission), Active Treatment Number (SARS-CoV-2 (COVID-19); [2]): 6 patients
- Disease course Severe (Hospital Admission), Active Treatment Percentage (SARS-CoV-2 (COVID-19); [2]): 2%
- Disease course Severe (Hospital/ICU Admission), Active Treatment Number (SARS-CoV-2 (COVID-19); [3]): 2 patients
- Disease course Severe (Hospital/ICU Admission), Active Treatment Percentage (SARS-CoV-2 (COVID-19); [3]): 0.6%
- Disease course Mild, Active Treatment Number (SARS-CoV-2 (COVID-19); mild = max fever 37.7° C., 1 week, 1% methylene blue flushing/gargling/spraying + 660 nm, 240 mW, total about 360 J/cm2, 300 patients): 192 patients
- Disease course Mild, Active Treatment Percentage (SARS-CoV-2 (COVID-19); mild = max fever 37.7° C., 1 week, methylene blue + 660 nm irradiation, 300 patients): 64%
- Disease course Moderate, Active Treatment Number (SARS-CoV-2 (COVID-19); [4]): 99 patients
- Disease course Moderate, Active Treatment Percentage (SARS-CoV-2 (COVID-19); [4]): 33%
- Severe course of disease (both severe categories together), active treatment group (SARS-CoV-2 (COVID-19); vs. 19% in placebo, methylene blue + 660 nm irradiation): 2.6%
- Attenuation of disease progression (mild plus moderate course), active treatment group (SARS-CoV-2 (COVID-19); vs. 81% in placebo, methylene blue + 660 nm irradiation): 97%
- Patients with presence of antibodies (ELISA) (SARS CoV-2): 96%
- Treatment related adverse events / side effects [1]: free of any side effects; also recorded: no treatment related adverse events
